# Experimental data: ChEMBL document CHEMBL1135131, “Nicotinanilides as inhibitors of neutrophil chemotaxis” (Bioorg Med Chem Lett, 2002)
# Target: T1, C-X-C chemokine receptor type 2 (Homo sapiens, UniProt P25025)
# T1 sequence (P25025 whole entry): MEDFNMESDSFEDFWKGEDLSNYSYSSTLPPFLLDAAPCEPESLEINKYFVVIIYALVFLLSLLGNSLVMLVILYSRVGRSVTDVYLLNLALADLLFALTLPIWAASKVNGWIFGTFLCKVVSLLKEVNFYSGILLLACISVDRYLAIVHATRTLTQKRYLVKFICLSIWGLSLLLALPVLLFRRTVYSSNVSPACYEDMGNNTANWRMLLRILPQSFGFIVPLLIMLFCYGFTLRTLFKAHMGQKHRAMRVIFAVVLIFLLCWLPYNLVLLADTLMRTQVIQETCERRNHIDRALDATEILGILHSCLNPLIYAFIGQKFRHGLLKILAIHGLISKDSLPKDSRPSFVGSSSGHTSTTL
# Assay: Displacement of [125I]IL-8 from CHO cell membranes expressing human […] chemokine receptor 2 (CXCR2 filter mat binding assay)
row,IC50 [nM],SMILES
1,1200,O=C(O)CSc1ccc(C(=O)Nc2ccc(F)cc2)cn1

# Target: T2, Interleukin-8 receptors, CXCR1/CXCR2 (Homo sapiens, UniProt P25025+P25024)
# T2 sequence (P25025 whole entry): T1 sequence (P25025 whole entry)
# T2 sequence (P25024 whole entry): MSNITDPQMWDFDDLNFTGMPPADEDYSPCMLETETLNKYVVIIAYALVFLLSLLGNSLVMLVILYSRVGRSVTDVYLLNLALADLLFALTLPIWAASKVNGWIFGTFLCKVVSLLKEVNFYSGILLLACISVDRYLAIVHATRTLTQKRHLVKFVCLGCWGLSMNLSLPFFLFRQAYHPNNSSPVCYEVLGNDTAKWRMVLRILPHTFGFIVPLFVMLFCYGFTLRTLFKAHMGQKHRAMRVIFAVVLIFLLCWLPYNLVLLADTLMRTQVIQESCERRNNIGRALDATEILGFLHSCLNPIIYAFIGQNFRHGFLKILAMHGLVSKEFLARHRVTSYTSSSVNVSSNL
# Assay: Inhibition against GRO-alpha driven human neutrophil chemotaxis
# Assay type: functional
row,SMILES,IC50 [nM]
1,CCCOC(=O)CSc1ccc(C(=O)Nc2ccc(F)cc2)cn1,46
2,COC(=O)CSc1ccc(C(=O)Nc2ccc(F)cc2)cn1,42
3,O=C(COc1ccc(C(=O)Nc2ccc(F)cc2)cn1)OCc1cccc(F)c1,50
4,O=C(COc1ccc(C(=O)Nc2ccc(F)cc2)cn1)Oc1ccccc1,410
5,CNC(=O)COc1ccc(C(=O)Nc2ccc(F)cc2)cn1,> 20000
6,CN(C(=O)COc1ccc(C(=O)Nc2ccc(F)cc2)cn1)c1ccccc1,12500
7,COC(=O)CCSc1ccc(C(=O)Nc2ccc(F)cc2)cn1,760
8,O=C(CSc1ccc(C(=O)Nc2ccc(F)cc2)cn1)OCc1ccc(Br)cc1,83
9,O=C(O)CSc1ccc(C(=O)Nc2ccc(F)cc2)cn1,> 20000
10,O=C(COc1ccc(C(=O)Nc2ccc(F)cc2)cn1)NC1CCCC1,> 20000
11,O=C(COc1ccc(C(=O)Nc2ccc(F)cc2)cn1)Nc1cccnc1,220
12,O=C(O)CCSc1ccc(C(=O)Nc2ccc(F)cc2)cn1,> 20000
13,O=C(COc1ccc(C(=O)Nc2ccc(F)cc2)cn1)OCCCCC1CCCCC1,680

# Next, values leading:
row,IC50 [nM],SMILES
1,94,O=C(COc1ccc(C(=O)Nc2ccc(F)cc2)cn1)OCc1ccccc1
2,2700,O=C(COc1ccc(C(=O)Nc2ccc(F)cc2)cn1)Nc1cccc(Br)c1
3,160,CCOC(=O)COc1ccc(C(=O)Nc2ccc(F)cc2)cn1
4,110,COC(=O)COc1ccc(C(=O)Nc2ccc(F)cc2)cn1
5,200,CC(C)CCOC(=O)COc1ccc(C(=O)Nc2ccc(F)cc2)cn1
6,360,COC(=O)COc1ccc(NC(=O)c2ccc(F)cc2)cn1
7,220,O=C(COc1ccc(C(=O)Nc2ccc(F)cc2)cn1)OC1CCCCC1
8,1000,O=C(COc1ccc(C(=O)Nc2ccc(F)cc2)cn1)Nc1ccccc1
9,43,O=C(CSc1ccc(C(=O)Nc2ccc(F)cc2)cn1)OCc1cccc(F)c1
10,5100,O=C(O)CCCSc1ccc(C(=O)Nc2ccc(F)cc2)cn1

# Tested on: not listed separately
# Assay: Inhibition against formyl-methionyl-leucyl (FMLP) phenylalanine driven human neutrophil chemotaxis
# Assay type: functional
row,SMILES,IC50 [nM]
1,CCCOC(=O)CSc1ccc(C(=O)Nc2ccc(F)cc2)cn1,> 40000
2,O=C(COc1ccc(C(=O)Nc2ccc(F)cc2)cn1)OCc1cccc(F)c1,> 40000
3,CN(C(=O)COc1ccc(C(=O)Nc2ccc(F)cc2)cn1)c1ccccc1,> 40000
4,COC(=O)CCSc1ccc(C(=O)Nc2ccc(F)cc2)cn1,> 40000
5,O=C(COc1ccc(C(=O)Nc2ccc(F)cc2)cn1)Nc1cccnc1,> 40000
6,O=C(COc1ccc(C(=O)Nc2ccc(F)cc2)cn1)OCCCCC1CCCCC1,> 40000

# Next, values leading:
row,IC50 [nM],SMILES
1,> 40000,O=C(COc1ccc(C(=O)Nc2ccc(F)cc2)cn1)OCc1ccccc1
2,> 40000,O=C(COc1ccc(C(=O)Nc2ccc(F)cc2)cn1)Nc1cccc(Br)c1
3,> 40000,CCOC(=O)COc1ccc(C(=O)Nc2ccc(F)cc2)cn1
4,> 40000,COC(=O)COc1ccc(C(=O)Nc2ccc(F)cc2)cn1
5,> 40000,CC(C)CCOC(=O)COc1ccc(C(=O)Nc2ccc(F)cc2)cn1
6,> 40000,O=C(COc1ccc(C(=O)Nc2ccc(F)cc2)cn1)OC1CCCCC1
7,> 40000,O=C(COc1ccc(C(=O)Nc2ccc(F)cc2)cn1)Nc1ccccc1

# Target: T1, C-X-C chemokine receptor type 2
# Assay: Displacement of [125I]IL-8 from CHO cell membranes expressing human […] chemokine receptor 2
row,IC50 [nM],SMILES
1,32,COC(=O)CSc1ccc(C(=O)Nc2ccc(F)cc2)cn1
